# According to patent US11965039B2, “Compstatin analogues and their medical uses” (priority 2018, dated 2024):
# Positions of bridges follow the written chain, without caps; N, C: chain ends. Non-standard residues stand in square brackets, D forms with d. Residues, ends and D or L forms follow the SMILES beside them. Trp(1-Me) = Cn1cc(C[C@H](N)C(=O)O)c2ccccc21; 1Nal = N[C@@H](Cc1cccc2ccccc12)C(=O)O; 2Nal = N[C@@H](Cc1ccc2ccccc2c1)C(=O)O
# Tests used:
# [1] = Solubility test at 10 mg/mL (visual inspection and light scattering); format: physicochemical; settings: for Solubility, Condition 1: Acetate pH 4; for Solubility, Condition 2: Acetate pH 5; for Solubility, Condition 3: Phosphate pH 6; for Solubility, Condition 4: Phosphate pH 7; for Solubility, Condition 5: Phosphate pH 7.5
# [2] = tested on: classical complement pathway; assay: In vitro haemolysis assay (inhibition of classical complement pathway); format: cell-based, human; settings: human serum, sensitized sheep red blood cells; Table 3, given as upper bounds; read-out: IC50, inhibition of hemolysis
# In short: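 Compound dilutions preincubated 15 min at room temperature with diluted human serum (titrated per batch for 70-90% maximal haemolysis), then antibody-sensitized sheep RBC (10^7/well) added for 30 min at 37 °C in Tris/casein buffer, pH 7.4. Stopped with EDTA; haemolysis read at 405 nm; IC50 by 4PL fit.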
SMILES,"Solubility, Condition 1 [1]","Solubility, Condition 2 [1]","Solubility, Condition 3 [1]","Solubility, Condition 4 [1]","Solubility, Condition 5 [1]",IC50 [2] [nM]
CC[C@H](C)[C@H](NC(=O)[C@H](C)NC(=O)[C@H](CO)NC(=O)CNC(=O)[C@H](CCC(=O)O)NC(C)=O)C(=O)N[C@H]1CSSC[C@@H](C(=O)N[C@H](C(=O)N[C@@H](CCC(=O)O)C(N)=O)[C@@H](C)O)NC(=O)[C@H](CCCNC(=N)N)NC(=O)[C@H](Cc2c[nH]cn2)NC(=O)[C@H](CCC(=O)O)NC(=O)CNC(=O)[C@H](Cc2c[nH]c3ccccc23)NC(=O)[C@H](CC(=O)O)NC(=O)[C@H](CCC(N)=O)NC(=O)[C@H](Cc2c[nH]c3ccccc23)NC(=O)[C@H]([C@@H](C)CC)NC1=O [Compound 55] (Ac-EGSAICIWQDWGEHRCTE-NH2; disulfide 6-16),"− (“−” denotes lack of solubility at the given condition, as UV absorbance at 340 nm exceeds 0.1 AU and/or it is visibly turbid or contains particles)","− (“−” denotes lack of solubility at the given condition, as UV absorbance at 340 nm exceeds 0.1 AU and/or it is visibly turbid or contains particles)","+ (“+” denotes solubility at the given condition, as determined by UV absorbance being less than 0.1 AU at 340 nm and the sample being clear when manually inspected)","+ (“+” denotes solubility at the given condition, as determined by UV absorbance being less than 0.1 AU at 340 nm and the sample being clear when manually inspected)","+ (“+” denotes solubility at the given condition, as determined by UV absorbance being less than 0.1 AU at 340 nm and the sample being clear when manually inspected)",< 250
CC[C@H](C)[C@@H]1NC(=O)[C@@H](NC(=O)[C@H](Cc2ccccc2)NC(=O)[C@H](C)NC(=O)[C@H](CO)NC(=O)CNC(=O)[C@H](CCC(=O)O)NC(C)=O)CSSC[C@@H](C(=O)N[C@H](C(=O)N[C@@H](CCC(=O)O)C(N)=O)[C@@H](C)O)NC(=O)[C@H](CCCNC(=N)N)NC(=O)[C@H](Cc2c[nH]cn2)NC(=O)[C@H](CCC(=O)O)NC(=O)CNC(=O)[C@H](Cc2c[nH]c3ccccc23)NC(=O)[C@H](CC(=O)O)NC(=O)[C@H](CCC(N)=O)NC(=O)[C@H](Cc2cccc3ccccc23)NC1=O [Compound 56] (Ac-EGSAFCI[1Nal]QDWGEHRCTE-NH2; disulfide 6-16),"− (“−” denotes lack of solubility at the given condition, as UV absorbance at 340 nm exceeds 0.1 AU and/or it is visibly turbid or contains particles)","− (“−” denotes lack of solubility at the given condition, as UV absorbance at 340 nm exceeds 0.1 AU and/or it is visibly turbid or contains particles)","+ (“+” denotes solubility at the given condition, as determined by UV absorbance being less than 0.1 AU at 340 nm and the sample being clear when manually inspected)","+ (“+” denotes solubility at the given condition, as determined by UV absorbance being less than 0.1 AU at 340 nm and the sample being clear when manually inspected)","+ (“+” denotes solubility at the given condition, as determined by UV absorbance being less than 0.1 AU at 340 nm and the sample being clear when manually inspected)",< 100
CC[C@H](C)[C@@H]1NC(=O)[C@@H](NC(=O)[C@H](Cc2ccccc2)NC(=O)[C@H](C)NC(=O)[C@H](CO)NC(=O)CNC(=O)[C@H](CCC(=O)O)NC(C)=O)CSSC[C@@H](C(=O)N[C@H](C(=O)N[C@@H](CCC(=O)O)C(N)=O)[C@@H](C)O)NC(=O)[C@H](CCCNC(=N)N)NC(=O)[C@H](Cc2c[nH]cn2)NC(=O)[C@H](CCC(=O)O)NC(=O)CNC(=O)[C@H](Cc2c[nH]c3ccccc23)NC(=O)[C@H](CC(=O)O)NC(=O)[C@H](CCC(N)=O)NC(=O)[C@H](Cc2cn(C)c3ccccc23)NC1=O [Compound 57] (Ac-EGSAFCI[Trp(1-Me)]QDWGEHRCTE-NH2; disulfide 6-16),"− (“−” denotes lack of solubility at the given condition, as UV absorbance at 340 nm exceeds 0.1 AU and/or it is visibly turbid or contains particles)","− (“−” denotes lack of solubility at the given condition, as UV absorbance at 340 nm exceeds 0.1 AU and/or it is visibly turbid or contains particles)","+ (“+” denotes solubility at the given condition, as determined by UV absorbance being less than 0.1 AU at 340 nm and the sample being clear when manually inspected)","+ (“+” denotes solubility at the given condition, as determined by UV absorbance being less than 0.1 AU at 340 nm and the sample being clear when manually inspected)","+ (“+” denotes solubility at the given condition, as determined by UV absorbance being less than 0.1 AU at 340 nm and the sample being clear when manually inspected)",< 100
CC[C@H](C)[C@@H]1NC(=O)[C@@H](NC(=O)[C@H](Cc2ccccc2)NC(=O)[C@H](C)NC(=O)[C@H](CO)NC(=O)CNC(=O)[C@H](CCC(=O)O)NC(C)=O)CSSC[C@@H](C(=O)N[C@H](C(=O)N[C@@H](CCC(=O)O)C(N)=O)[C@@H](C)O)NC(=O)[C@H](CCCNC(=N)N)NC(=O)[C@H](Cc2c[nH]cn2)NC(=O)[C@H](CCC(=O)O)NC(=O)CNC(=O)[C@H](Cc2c[nH]c3ccccc23)NC(=O)[C@H](CC(=O)O)NC(=O)[C@H](CCC(N)=O)NC(=O)[C@H](Cc2ccc3ccccc3c2)NC1=O [Compound 60] (Ac-EGSAFCI[2Nal]QDWGEHRCTE-NH2; disulfide 6-16),"− (“−” denotes lack of solubility at the given condition, as UV absorbance at 340 nm exceeds 0.1 AU and/or it is visibly turbid or contains particles)","− (“−” denotes lack of solubility at the given condition, as UV absorbance at 340 nm exceeds 0.1 AU and/or it is visibly turbid or contains particles)","+ (“+” denotes solubility at the given condition, as determined by UV absorbance being less than 0.1 AU at 340 nm and the sample being clear when manually inspected)","+ (“+” denotes solubility at the given condition, as determined by UV absorbance being less than 0.1 AU at 340 nm and the sample being clear when manually inspected)","+ (“+” denotes solubility at the given condition, as determined by UV absorbance being less than 0.1 AU at 340 nm and the sample being clear when manually inspected)",< 100
CC[C@H](C)[C@@H]1NC(=O)[C@@H](NC(=O)[C@H](Cc2ccc(O)cc2)NC(C)=O)CSSC[C@@H](C(=O)N[C@H](C(=O)NCC(=O)N[C@@H](C)C(=O)N[C@@H](CCC(=O)O)C(=O)N[C@@H](CO)C(N)=O)[C@@H](C)O)NC(=O)[C@H](CCCNC(=N)N)NC(=O)[C@H](Cc2c[nH]cn2)NC(=O)[C@H](CCC(=O)O)NC(=O)CNC(=O)[C@H](Cc2c[nH]c3ccccc23)NC(=O)[C@H](CC(=O)O)NC(=O)[C@H](CCC(N)=O)NC(=O)[C@H](Cc2cn(C)c3ccccc23)NC1=O [Compound 62] (Ac-YCI[Trp(1-Me)]QDWGEHRCTGAES-NH2; disulfide 2-12),"− (“−” denotes lack of solubility at the given condition, as UV absorbance at 340 nm exceeds 0.1 AU and/or it is visibly turbid or contains particles)","− (“−” denotes lack of solubility at the given condition, as UV absorbance at 340 nm exceeds 0.1 AU and/or it is visibly turbid or contains particles)","+ (“+” denotes solubility at the given condition, as determined by UV absorbance being less than 0.1 AU at 340 nm and the sample being clear when manually inspected)","+ (“+” denotes solubility at the given condition, as determined by UV absorbance being less than 0.1 AU at 340 nm and the sample being clear when manually inspected)","+ (“+” denotes solubility at the given condition, as determined by UV absorbance being less than 0.1 AU at 340 nm and the sample being clear when manually inspected)",< 100
CC[C@H](C)[C@@H]1NC(=O)[C@@H](NC(=O)[C@H](Cc2ccccc2)NC(C)=O)CSSC[C@@H](C(=O)N[C@H](C(=O)NCC(=O)N[C@@H](C)C(=O)N[C@@H](CCC(=O)O)C(=O)N[C@@H](CO)C(N)=O)[C@@H](C)O)NC(=O)[C@H](CCCNC(=N)N)NC(=O)[C@H](Cc2c[nH]cn2)NC(=O)[C@H](CCC(=O)O)NC(=O)CNC(=O)[C@H](Cc2c[nH]c3ccccc23)NC(=O)[C@H](CC(=O)O)NC(=O)[C@H](CCC(N)=O)NC(=O)[C@H](Cc2cccc3ccccc23)NC1=O [Compound 63] (Ac-FCI[1Nal]QDWGEHRCTGAES-NH2; disulfide 2-12),"− (“−” denotes lack of solubility at the given condition, as UV absorbance at 340 nm exceeds 0.1 AU and/or it is visibly turbid or contains particles)","− (“−” denotes lack of solubility at the given condition, as UV absorbance at 340 nm exceeds 0.1 AU and/or it is visibly turbid or contains particles)","+ (“+” denotes solubility at the given condition, as determined by UV absorbance being less than 0.1 AU at 340 nm and the sample being clear when manually inspected)","+ (“+” denotes solubility at the given condition, as determined by UV absorbance being less than 0.1 AU at 340 nm and the sample being clear when manually inspected)","+ (“+” denotes solubility at the given condition, as determined by UV absorbance being less than 0.1 AU at 340 nm and the sample being clear when manually inspected)",< 100
